Changes are numbered by the printed parent chain. Several values for one entry are separate records, joined by “and”; a condition that tells them apart may be missing. Equal entries are not always repeated.
Legend:
[1] = molecular target: T1, Y142A mutant mouse 5-HT3ASR (Mus musculus, UniProt P23979, Y143A); test: [^3H]granisetron saturation binding, Y142A receptor; details: ± SE
T1 sequence (P23979 24-483 isoform P23979-2 Y143A): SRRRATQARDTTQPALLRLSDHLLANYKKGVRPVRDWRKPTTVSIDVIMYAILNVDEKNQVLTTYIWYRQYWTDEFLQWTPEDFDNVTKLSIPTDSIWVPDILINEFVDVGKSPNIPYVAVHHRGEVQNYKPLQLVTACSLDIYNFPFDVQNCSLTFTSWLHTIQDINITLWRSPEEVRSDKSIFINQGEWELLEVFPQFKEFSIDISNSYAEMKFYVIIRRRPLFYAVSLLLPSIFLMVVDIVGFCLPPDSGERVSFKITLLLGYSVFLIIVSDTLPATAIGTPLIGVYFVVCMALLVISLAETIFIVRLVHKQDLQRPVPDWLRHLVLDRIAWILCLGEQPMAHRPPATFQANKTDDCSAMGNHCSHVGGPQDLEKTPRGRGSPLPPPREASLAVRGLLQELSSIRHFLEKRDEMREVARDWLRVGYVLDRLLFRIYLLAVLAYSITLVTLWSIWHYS

[2] = test system: Q150A – K153A mutant mouse 5-HT3ASRs; test: [^3H]granisetron saturation binding, Q150A – K153A receptors
[3] = molecular target: T2, E148A mutant mouse 5-HT3ASR (Mus musculus, UniProt P23979, E149A); test: [^3H]granisetron saturation binding, E148A receptor
T2 sequence (P23979 24-483 isoform P23979-2 E149A): T1 sequence (P23979 24-483 isoform P23979-2 Y143A) with A120Y, E126A

[4] = molecular target: T3, Y152A mutant mouse 5-HT3ASR (Mus musculus, UniProt P23979, Y153A); test: [^3H]granisetron saturation binding, Y152A receptor; details: ± SE
T3 sequence (P23979 24-483 isoform P23979-2 Y153A): T1 sequence (P23979 24-483 isoform P23979-2 Y143A) with A120Y, Y130A

[5] = molecular target: T4, N151A mutant mouse 5-HT3ASR (Mus musculus, UniProt P23979, N152A); test: [^3H]granisetron saturation binding, N151A receptor; details: ± SE
T4 sequence (P23979 24-483 isoform P23979-2 N152A): T1 sequence (P23979 24-483 isoform P23979-2 Y143A) with A120Y, N129A

[6] = molecular target: T5, V143A mutant mouse 5-HT3ASR (Mus musculus, UniProt P23979, V144A); test: [^3H]granisetron saturation binding, V143A receptor; details: ± SE
T5 sequence (P23979 24-483 isoform P23979-2 V144A): T1 sequence (P23979 24-483 isoform P23979-2 Y143A) with A120Y, V121A

Bmax [1]: 0.97 ± .14 pmol/mg protein
Hill coefficient (n) [1]: 1.6 ± 0.27
decrease in binding affinity (increased Kd), mutant vs wildtype [2]: 6 – 8 fold
decrease in binding affinity (increased Kd), mutant vs wildtype ([3]; E148A vs wildtype): 5.3 fold
Hill coefficient (n) ([3]; E148A, ± SE): 0.93 ± 0.19
Bmax [4]: 0.59 ± .10 pmol/mg protein
Bmax [5]: 4.9 ± 1.1 pmol/mg protein
Hill coefficient (n) [5]: 1.66 ± 0.16
Bmax [6]: 1.1 ± .04 pmol/mg protein
Hill coefficient (n) [6]: 0.97 ± 0.13
Structure (SMILES): CN1C2CCCC1CC(NC(=O)c1nn(C)c3ccccc13)C2 (centres unmarked) [[^3H]granisetron]
Bmax ([3]; E148A, ± SE): 5.5 pmol/mg protein and 5.5 ± 1.2 pmol/mg protein

Reference: publication PMC117120 (BMC Biochemistry, 2002)
